Results published in US6159934A, “Use of GHRH-RP to stimulate stem cell factor production” (Indiana University Foundation, priority 1996, dated 2000).

What was measured:
[1] = tested on: androgen binding protein (ABP) gene expression in Sertoli cells; assay: Northern blot analysis of androgen binding protein (ABP) gene expression in cultured Sertoli cells; assay type: cell-based; conditions: GHRH-RP 10 nM and 100 nM, GHRH 10 nM, 16 hours, rat Sertoli cells
Description: (§1) As indicated above, it has been discovered that GHRH-RP has a unique testicular action. GHRH-RP specifically activated SVF in Sertoli cells as described in Example 3 below. […] Northern gel analysis of 10 μg of total Sertoli cell RNA was performed and the blot probed for SCF, transferrin, androgen binding protein (ABP), α-inhibin and γ-actin as control. B. Bloch, A. Baird, N. Ling, R. Guillemin, Endocrinology 118, 156 (1986). Stimulation of SCF expression is 12 fold over control at 10 nM and 16 fold at 100 nM concentrations of GHRH-RP. GHRH (10 nM) stimulated stem cell factor gene expression 3 fold over control. […] Other Sertoli cell specific transcripts including transferrin, ABP and α-inhibin were note regulated by GHRH-RP (FIG. 6). Although a functional GHRH receptor has been identified in Sertoli cells (R. S. Johnson, B. M. Spiegelman, V. Papaioannou, Cell 71, 577 (1992); K. M. Zsebo et al., Cell 63, 213 (1990); E. Huang et al., Cell 63, 225), the GHRH-RP stimulation of stem cell factor expression may not be mediated through this receptor. […] Adenylate cyclase stimulation is measured as fold stimulation of control. […]
(§2) Sprague-Dawley rats (20-22 day old) were obtained from Harlan Labs (Indianapolis, IN). […] Cell purity was monitored by phase contrast microscopy and by comparative reverse transcription-polymerase chain reaction (RT-PCR) amplification. […]

[2] = tested on: transferrin gene expression in Sertoli cells; assay: Northern blot analysis of transferrin gene expression in cultured Sertoli cells; assay type: cell-based; conditions: GHRH-RP 10 nM and 100 nM, GHRH 10 nM, 16 hours, rat Sertoli cells
Description: as §1, §2

[3] = tested on: stem cell factor (SCF) gene expression in Sertoli cells; assay: Northern blot analysis of SCF gene expression in cultured Sertoli cells; assay type: cell-based; conditions: 16 hours, rat Sertoli cells, actin as control
Description: As indicated above, it has been discovered that GHRH-RP has a unique testicular action. GHRH-RP specifically activated SVF in Sertoli cells as described in Example 3 below. […] Northern gel analysis of 10 μg of total Sertoli cell RNA was performed and the blot probed for SCF, transferrin, androgen binding protein (ABP), α-inhibin and γ-actin as control. B. Bloch, A. Baird, N. Ling, R. Guillemin, Endocrinology 118, 156 (1986). Stimulation of SCF expression is 12 fold over control at 10 nM and 16 fold at 100 nM concentrations of GHRH-RP. GHRH (10 nM) stimulated stem cell factor gene expression 3 fold over control. […] Other Sertoli cell specific transcripts including transferrin, ABP and α-inhibin were note regulated by GHRH-RP (FIG. 6). Although a functional GHRH receptor has been identified in Sertoli cells (R. S. Johnson, B. M. Spiegelman, V. Papaioannou, Cell 71, 577 (1992); K. M. Zsebo et al., Cell 63, 213 (1990); E. Huang et al., Cell 63, 225), the GHRH-RP stimulation of stem cell factor expression may not be mediated through this receptor. […] Briefly, shown in FIG. 6 are the results of experiments in which rat Sertoli cells, isolated and cultured for 4 days were incubated with GHRH-RP (100 nM), GHRH (100 nM), FSH (0.0275 U/ml) or control media for 30 minutes at 37° C. The cells were then assayed for cAMP production by 125 I cAMP Radioimmunoassay. C. H. Srivastava, J. D. Fleck, A. M. Meyers, S. A. Berry, O. H. Pescovitz, "Distribution of Growth Hormone Releasing Hormone-Like (HRH-LI) mRNA and Immunoreactivity in Rat Tissues" (Abstract), The Endocrine Society, 73rd Annual Endocrine Society, Washington, D.C. (1991). Adenylate cyclase stimulation is measured as fold stimulation of control. Each bar is representative of five separate experiments.
as §2

[4] = tested on: α-inhibin gene expression in Sertoli cells; assay: Northern blot analysis of α-inhibin gene expression in cultured Sertoli cells; assay type: cell-based; conditions: GHRH-RP 10 nM and 100 nM, GHRH 10 nM, 16 hours, rat Sertoli cells
Description: as §1, §2

[5] = tested on: adenylate cyclase in cultured Sertoli cells; assay: cAMP production (125I cAMP radioimmunoassay) in cultured Sertoli cells; assay type: cell-based; conditions: 100 nM, 30 minutes at 37° C., rat Sertoli cells day 4 of culture
Description: As indicated above, it has been discovered that GHRH-RP has a unique testicular action. GHRH-RP specifically activated SVF in Sertoli cells as described in Example 3 below. […] Northern gel analysis of 10 μg of total Sertoli cell RNA was performed and the blot probed for SCF, transferrin, androgen binding protein (ABP), α-inhibin and γ-actin as control. B. Bloch, A. Baird, N. Ling, R. Guillemin, Endocrinology 118, 156 (1986). Stimulation of SCF expression is 12 fold over control at 10 nM and 16 fold at 100 nM concentrations of GHRH-RP. GHRH (10 nM) stimulated stem cell factor gene expression 3 fold over control. […] Other Sertoli cell specific transcripts including transferrin, ABP and α-inhibin were note regulated by GHRH-RP (FIG. 6). Although a functional GHRH receptor has been identified in Sertoli cells (R. S. Johnson, B. M. Spiegelman, V. Papaioannou, Cell 71, 577 (1992); K. M. Zsebo et al., Cell 63, 213 (1990); E. Huang et al., Cell 63, 225), the GHRH-RP stimulation of stem cell factor expression may not be mediated through this receptor. […] Briefly, shown in FIG. 6 are the results of experiments in which rat Sertoli cells, isolated and cultured for 4 days were incubated with GHRH-RP (100 nM), GHRH (100 nM), FSH (0.0275 U/ml) or control media for 30 minutes at 37° C. […] Adenylate cyclase stimulation is measured as fold stimulation of control. […]

[6] = tested on: stem cell factor (SCF) gene expression in Sertoli cells; conditions: treatment of cultured Sertoli cells; Srivastava et al., Endocrinology 133, 1478 (1993); cited from earlier work
[7] = tested on: Sertoli cell c-fos gene expression; conditions: treatment of cultured Sertoli cells; Srivastava et al., Endocrinology 133, 1478 (1993); cited from earlier work

Substance	stimulation of ABP gene expression over control [1]	stimulation of transferrin gene expression over control [2]	Stimulation of SCF expression ([3]; 10 nM)	Stimulation of SCF expression ([3]; 100 nM)	stimulation of α-inhibin gene expression over control [4]	Adenylate cyclase stimulation (cAMP production) [5]	Sertoli cell stem cell factor gene expression [6]	Sertoli cell c-fos gene expression [7]
GHRH-RP: 30 amino acid C-terminal peptide of the GHRH precursor; rat peptide synthesized from the deduced amino acid sequence (amino acids 74-104) (HLDRVWAEDKQMALESILQGFPRMKLSAEA)	no stimulation	no stimulation	12 fold over control	16 fold	no stimulation	does not stimulate increases	–	–
GHRH: mature 43 amino acid rat GHRH peptide, hypothalamic factor that stimulates release of pituitary growth hormone (HADAIFTSSYRRILGQLYARKLLHEIMNRQQGERNQEQRSRFN)	no stimulation	no stimulation	3 fold over control	–	no stimulation	–	activates	activates
